Nine compounds from US11034650B2, “Compounds useful for treating a Mannheimia haemolytica or Histophilus somni infection” (Intervet Inc., priority 2016, dated 2021) can be followed below.

Molecules are shown by their SMILES. In brackets after ≈: the same amount, converted by molar mass.

What all share (type): cell-based
The test system of experiment [1] is Pasteurella multocida PM 6267 (P 2225 (L386), reference strain, mouse infection strain). Nature of the experiment: MIC, broth-microdilution (CLSI VET01-A4), strain PM 6267. The note with it: Pasteurella multocida strain PM 6267, broth-microdilution; unit assumed. On the procedure: (§1) For example, representative compounds were tested against ***, Mannheimia haemolytica and Pasteurella multocida, using the conventional broth-dilution assay.
(§2) The Minimum inhibitory concentrations (MIC) of compounds according to the invention for a number of veterinary bacterial pathogens were determined by the broth-microdilution method according to CLSI document VET01-A4.
(§3) Microdilution trays containing a doubling dilution series of the test compound were used for the tests. The MIC results were interpreted according to the CLSI documents VET01-S3. The lowest concentration of compound at which no visible growth (i.e. no turbidity) detected by the unaided eye was recorded as the MIC.

Experiment [2] concerns Mannheimia haemolytica MH 13093 (XB0472-6014.1, BRD field isolate). The experiment is described as follows: MIC, broth-microdilution (CLSI VET01-A4), strain MH 13093. Particulars: Mannheimia haemolytica strain MH 13093, broth-microdilution; unit assumed. On the procedure: as §1, §2, §3
On the technique in general: In broth dilution the organism is exposed to a series of concentrations in liquid medium.

The test system of experiment [3] is Mannheimia haemolytica MH 13065 (XB0446-6003.9, BRD field isolate). Nature of the experiment: MIC, broth-microdilution (CLSI VET01-A4), strain MH 13065. Particulars: Mannheimia haemolytica strain MH 13065, broth-microdilution; unit assumed. As to the method: as §1, §2, §3
The subject of experiment [4] is Mannheimia haemolytica MH 6374 (ATCC 33396, reference strain). The experiment is described as follows: MIC, broth-microdilution (CLSI VET01-A4), strain MH 6374. The note with it: Mannheimia haemolytica strain MH 6374, broth-microdilution; unit assumed. On the procedure: as §1, §2, §3
Experiment [5] concerns Pasteurella multocida PM 10775 (080130003051, BRD field isolate). Nature of the experiment: MIC, broth-microdilution (CLSI VET01-A4), strain PM 10775. The note with it: Pasteurella multocida strain PM 10775, broth-microdilution; unit assumed. As to the method:
as §1, §2, §3

For experiment [6], the system named is Pasteurella multocida PM 12080 (IV102277-0093, BRD field isolate). Nature of the experiment: MIC, broth-microdilution (CLSI VET01-A4), strain PM 12080. Particulars: Pasteurella multocida strain PM 12080, broth-microdilution; unit assumed. As to the method: as §1, §2, §3
For experiment [7], the system named is Mannheimia haemolytica MH 12587 (1071, BRD field isolate, macrolide-resistance: erm+, E+). Nature of the experiment: MIC, broth-microdilution (CLSI VET01-A4), strain MH 12587. The note with it: Mannheimia haemolytica strain MH 12587, broth-microdilution; unit assumed. On the procedure: as §1, §2, §3
Experiment [8] concerns Mannheimia haemolytica MH 6357 (M7/2, reference strain, cattle infection strain). The experiment is described as follows: MIC, broth-microdilution (CLSI VET01-A4), strain MH 6357. Particulars: Mannheimia haemolytica strain MH 6357, broth-microdilution; unit assumed. On the procedure:
as §1, §2, §3

Experiment [9] relates to Mannheimia haemolytica MH 10720 (154, BRD field isolate). Nature of the experiment: MIC, broth-microdilution (CLSI VET01-A4), strain MH 10720. The note with it: Mannheimia haemolytica strain MH 10720, broth-microdilution; unit assumed. As to the method:
as §1, §2, §3

`CC(C)NCc1ccc(C#Cc2ccc(C(=O)N[C@@H](CO)C(=O)NO)cc2)cc1` [Compound 72]: the MIC PM 6267 in experiment [1] came out at 1.6 µg/mL (≈ 4.05 µM). The MIC MH 13093 in [2] was found to be 12.5 µg/mL (≈ 31.6 µM). Moreover, in [3], the MIC MH 13065 turned out to be 12.5 µg/mL (≈ 31.6 µM). Further, the MIC MH 6374 in experiment [4] was 12.5 µg/mL (≈ 31.6 µM). This compound also registered an MIC PM 10775 in [5] of 0.8 µg/mL (≈ 2.02 µM). The compound also returned an MIC PM 12080 in [6] of 12.5 µg/mL (≈ 31.6 µM). In experiment [7], this compound showed an MIC MH 12587 of 25 µg/mL (≈ 63.2 µM). This compound registered an MIC MH 6357 in experiment [8] of 12.5 µg/mL (≈ 31.6 µM). Further, in experiment [9], the MIC MH 10720 came to 6.3 µg/mL (≈ 15.9 µM).

Take `C=CCNCc1ccc(C#Cc2ccc(C(=O)N[C@@H](CO)C(=O)NO)cc2)cc1` [Compound 73]: in experiment [1], the MIC PM 6267 worked out at 0.4 µg/mL (≈ 1.02 µM). For the same compound, in experiment [2], the MIC MH 13093 stood at 3.1 µg/mL (≈ 7.88 µM). Besides, the MIC MH 13065 in experiment [3] came to 3.1 µg/mL (≈ 7.88 µM). The compound also came in with an MIC MH 6374 in experiment [4] of 3.1 µg/mL (≈ 7.88 µM). The MIC PM 10775 in experiment [5] is at most 0.1 µg/mL. In experiment [6], this compound registered an MIC PM 12080 of 1.6 µg/mL (≈ 4.07 µM). The same compound showed an MIC MH 12587 in experiment [7] of 6.3 µg/mL (≈ 16 µM). For the same compound, the MIC MH 6357 in [8] came out at 3.1 µg/mL (≈ 7.88 µM). The MIC MH 10720 in [9] came to 3.1 µg/mL (≈ 7.88 µM).

In [1], `COCCNCc1ccc(C#Cc2ccc(C(=O)N[C@@H](CO)C(=O)NO)cc2)cc1` [Compound 74] displayed an MIC PM 6267 of 0.8 µg/mL (≈ 1.94 µM). Besides, the MIC MH 13093 in experiment [2] amounted to 12.5 µg/mL (≈ 30.4 µM). Further, in experiment [3], the MIC MH 13065 was found to be 6.3 µg/mL (≈ 15.3 µM). For the same compound, in experiment [4], the MIC MH 6374 worked out at 3.1 µg/mL (≈ 7.53 µM). The compound further yielded an MIC PM 10775 in [5] of at most 0.1 µg/mL. For the same compound, the MIC PM 12080 in experiment [6] worked out at 3.1 µg/mL (≈ 7.53 µM). The compound further displayed an MIC MH 12587 in experiment [7] of 12.5 µg/mL (≈ 30.4 µM). The MIC MH 6357 in [8] worked out at 3.1 µg/mL (≈ 7.53 µM). The MIC MH 10720 in experiment [9] came to 3.1 µg/mL (≈ 7.53 µM).

Turning to `CCN(CC)Cc1ccc(C#Cc2ccc(C(=O)N[C@@H](CO)C(=O)NO)cc2)cc1` [Compound 76], in experiment [1], the MIC PM 6267 came to 0.4 µg/mL (≈ 0.977 µM). Also, the MIC MH 13093 in experiment [2] came to 25 µg/mL (≈ 61.1 µM). The MIC MH 13065 in experiment [3] came out at 12.5 µg/mL (≈ 30.5 µM). The compound further gave an MIC MH 6374 in [4] of 25 µg/mL (≈ 61.1 µM). Further, the MIC PM 10775 in experiment [5] worked out at 0.2 µg/mL (≈ 0.488 µM). In addition, the MIC PM 12080 in [6] stood at 3.1 µg/mL (≈ 7.57 µM). In [7], this compound displayed an MIC MH 12587 of 25 µg/mL (≈ 61.1 µM). Moreover, the MIC MH 6357 in [8] was determined as 12.5 µg/mL (≈ 30.5 µM). The same compound came in with an MIC MH 10720 in experiment [9] of 6.3 µg/mL (≈ 15.4 µM).

Turning to `O=C(N[C@@H](CO)C(=O)NO)c1ccc(C#Cc2ccc(CN3CCOCC3)cc2)cc1` [Compound 77], in experiment [1], the MIC PM 6267 is at most 0.1 µg/mL. The MIC MH 13093 in experiment [2] is 3.1 µg/mL (≈ 7.32 µM). In addition, in [3], the MIC MH 13065 came out at 3.1 µg/mL (≈ 7.32 µM). Further, the MIC MH 6374 in experiment [4] came to 1.6 µg/mL (≈ 3.78 µM). The compound further registered an MIC PM 10775 in experiment [5] of at most 0.1 µg/mL. The compound also had an MIC PM 12080 in [6] of 0.8 µg/mL (≈ 1.89 µM). Further, the MIC MH 12587 in [7] was found to be 3.1 µg/mL (≈ 7.32 µM). The compound further had an MIC MH 6357 in experiment [8] of 6.3 µg/mL (≈ 14.9 µM). The MIC MH 10720 in experiment [9] amounted to 0.8 µg/mL (≈ 1.89 µM).

`O=C(N[C@@H](CO)C(=O)NO)c1ccc(C#Cc2ccc(CN3CCS(=O)(=O)CC3)cc2)cc1` [Compound 78] came in with an MIC PM 6267 in experiment [1] of at most 0.1 µg/mL. Also, in experiment [2], the MIC MH 13093 amounted to 6.3 µg/mL (≈ 13.4 µM). For the same compound, in experiment [3], the MIC MH 13065 was 6.3 µg/mL (≈ 13.4 µM). In experiment [4], the MIC MH 6374 came to 6.3 µg/mL (≈ 13.4 µM). In addition, the MIC PM 10775 in experiment [5] was at most 0.1 µg/mL. This compound also displayed an MIC PM 12080 in [6] of 0.8 µg/mL (≈ 1.7 µM). For the same compound, the MIC MH 12587 in experiment [7] turned out to be 12.5 µg/mL (≈ 26.5 µM). The MIC MH 6357 in experiment [8] came out at 6.3 µg/mL (≈ 13.4 µM). The same compound returned an MIC MH 10720 in experiment [9] of 3.1 µg/mL (≈ 6.57 µM).

On to `CC(C)(C)C1CCN(Cc2ccc(C#Cc3ccc(C(=O)N[C@@H](CO)C(=O)NO)cc3)cc2)CC1` [Compound 79], for which the MIC PM 6267 in experiment [1] is 0.4 µg/mL (≈ 0.838 µM). The MIC MH 13093 in [2] stood at 25 µg/mL (≈ 52.3 µM). This compound registered an MIC MH 13065 in [3] of 12.5 µg/mL (≈ 26.2 µM). Besides, in [4], the MIC MH 6374 is 25 µg/mL (≈ 52.3 µM). Further, the MIC PM 10775 in experiment [5] is at most 0.1 µg/mL. In addition, the MIC PM 12080 in experiment [6] stood at 1.6 µg/mL (≈ 3.35 µM). The MIC MH 12587 in experiment [7] came out at 25 µg/mL (≈ 52.3 µM). This compound registered an MIC MH 6357 in experiment [8] of 12.5 µg/mL (≈ 26.2 µM). In experiment [9], this compound returned an MIC MH 10720 of 3.1 µg/mL (≈ 6.49 µM).

The compound `O=C(N[C@@H](CO)C(=O)NO)c1ccc(C#Cc2ccc(CN3CCC(c4ccccc4)CC3)cc2)cc1` [Compound 80] gave an MIC PM 6267 in [1] of at most 0.1 µg/mL. Also, the MIC MH 13093 in experiment [2] came out at 6.3 µg/mL (≈ 12.7 µM). Moreover, in experiment [3], the MIC MH 13065 is 1.6 µg/mL (≈ 3.22 µM). Also, the MIC MH 6374 in [4] came to 1.6 µg/mL (≈ 3.22 µM). Further, the MIC PM 10775 in experiment [5] was at most 0.1 µg/mL. This compound had an MIC PM 12080 in experiment [6] of 0.8 µg/mL (≈ 1.61 µM). For the same compound, the MIC MH 12587 in experiment [7] was determined as 3.1 µg/mL (≈ 6.23 µM). The compound also had an MIC MH 6357 in experiment [8] of 1.6 µg/mL (≈ 3.22 µM). In [9], this compound displayed an MIC MH 10720 of 0.8 µg/mL (≈ 1.61 µM).

Regarding `CC[C@H](C)[C@H](NC(=O)c1ccc(C#Cc2ccc(CNCc3ccc(C)cc3)cc2)cc1)C(=O)NO` [Compound 189], the MIC PM 6267 in experiment [1] was 0.2 µg/mL (≈ 0.414 µM). In experiment [2], this compound came in with an MIC MH 13093 of 3.1 µg/mL (≈ 6.41 µM). Moreover, the MIC MH 13065 in experiment [3] was determined as 1.6 µg/mL (≈ 3.31 µM). The MIC MH 6374 in [4] was 3.1 µg/mL (≈ 6.41 µM). Further, the MIC PM 10775 in [5] is at most 0.1 µg/mL. The compound further came in with an MIC PM 12080 in experiment [6] of 0.4 µg/mL (≈ 0.827 µM). For the same compound, in [7], the MIC MH 12587 turned out to be 3.1 µg/mL (≈ 6.41 µM). In experiment [8], the MIC MH 6357 came out at 1.6 µg/mL (≈ 3.31 µM).
